Nc1ncnc2c1ncn2CCOCP(=O)(O)O
solubility (mole fraction)
Conditions | 278.15 K | 283.15 K | 288.15 K | 293.15 K | 298.15 K | 303.15 K | 308.15 K | 313.15 K | 318.15 K | 323.15 K
in DMF | 0.000121 | 0.000203 | 0.000318 | 0.000491 | 0.000762 | 0.00115 | 0.00172 | 0.00254 | 0.00368 | 0.0053
in acetone | 0.000103 | 0.000114 | 0.000145 | 0.00018 | 0.000231 | 0.000286 | 0.000359 | 0.000435 | 0.000531 | 0.00065
in ethanol | 7.5e-05 | 9.4e-05 | 0.00012 | 0.000154 | 0.000191 | 0.000237 | 0.000291 | 0.000342 | 0.000438 | 0.000541
in isobutanol | 0.000183 | 0.000211 | 0.000252 | 0.000296 | 0.000365 | 0.000433 | 0.000505 | 0.000597 | 0.00069 | 0.00081
in methanol | 0.000352 | 0.000395 | 0.000455 | 0.000523 | 0.0006 | 0.000704 | 0.000805 | 0.000915 | 0.00105 | 0.00122
in n-heptane | 0.000127 | 0.000139 | 0.000175 | 0.000217 | 0.000269 | 0.000325 | 0.000394 | 0.000473 | 0.00057 | 0.000679
in n-propanol | 0.000217 | 0.000235 | 0.000279 | 0.000343 | 0.000409 | 0.000485 | 0.00058 | 0.000681 | 0.0008 | 0.00093
in toluene | 5.7e-05 | 6.5e-05 | 8.7e-05 | 0.000115 | 0.000144 | 0.000185 | 0.000239 | 0.000295 | 0.000373 | 0.000464
